Test results reported in patent publication US20260337187A1, “COMPOUNDS FOR TREATMENT OF INFLAMMATORY PROCESSES” (THORNE LIMITED, priority 2022, published 2026).
Where two headings read alike, the source gives them in different places.

Key:
Type in all cases: cell-based
[1] = test system: Primary human pulmonary microvascular endothelial cells (HPMEC); assay: Neutrophil adhesion to endothelial cells; details: 10, 20 and 50 μM B2, TNF-α stimulated HPMEC (FIG. 11)
From the text: The number of adhered green-fluorescent labeled neutrophils per field of view normalized to the area covered by endothelial cells per field of view is shown. Three concentrations of B2 are shown next to the solvent (DMSO) control. An exemplary experiment out of three is shown.
Neutrophil adhesion to endothelial cells: Primary human pulmonary microvascular endothelial cells (HPMEC) were purchased from Promocell and maintained in endothelial cell media from Promocell as per the company's protocol. The endothelial cells were plated in flat bottom 96 well plastic plates at a concentration of 50,000 cells/well. After 24 h the endothelial cells were stimulated overnight by TNF-α (100 ng/ml) and the inhibitor. Neutrophils were isolated from whole blood using MACSxpress Neutrophil isolation kit. […] Samples were analyzed in triplicates and 3 fields of view were imaged per well. Cells per field of view were quantified using FiJi software.
To investigate the adhesion of neutrophils to endothelial cells, human primary neutrophils, were fluorescently labeled with 1 μM CellTracker dye and resuspended in HBS solution prior to addition of B2 or DMSO. Green fluorescent adherent cells were counted, the area covered by endothelial cell was measured, and the number of neutrophils adherent to endothelial cells normalized for the area covered by endothelial cells.

[2] = test system: human primary eosinophils; assay: Eosinophil ROS production (PMA triggered, DHR-123, FACS); details: FIG. 7 (100, 50, 25 μM)
Description: The effect of 3 different concentrations (from right to left: 100, 50 and 25 μM) of B2 is shown in comparison to control (far left) and ROS triggered control (PMA; second from left); average of 3 experiments.
Eosinophil ROS production: Human primary eosinophils were purified from buffy coat, firstly by density gradient centrifugation on ficoll to isolate total peripheral blood mononuclear cell (PBMC), and then by negative selection using the eosinophil purification kit from Miltenyi Inc. as per manufacturer's instructions. The eosinophils were then resuspended in pre-warmed tissue culture media, which had been left in the incubator overnight to equilibrate, containing 25 μM dihydrorhodamine 123 (DHR-123) at a cell density of 1×10^6 cells/ml. The cells were then stimulated with phorbol 12-myristate 13-actetate (PMA) at a concentration of 1 μM in the presence or absence of B2 or DMSO for control in the incubator for 20 minutes and then immediately put on ice to stop the reaction. Levels of the oxidized DHR in the samples were measured by flow cytometry as described above in relation to neutrophil ROS production.
To investigate inhibition of eosinophil ROS production by B2, human primary eosinophils, isolated from fresh blood samples, were triggered to produce ROS by treatment with PMA, and ROS measured by FACS based on the conversion of dihydrorhodamine 123 to rhodamine 123 (FIG. 7).

[3] = test system: Primary human pulmonary microvascular endothelial cells (HPMEC); assay: Pulmonary endothelial cell cytokine release (TNFα triggered, cytokine array); details: for inhibition at 50 µM: Homo sapiens, Endothelial cell, 50 μM B2, activated by TNF
Description: Endothelial cell cytokine release: Primary human pulmonary microvascular endothelial cells (HPMEC) were purchased from Promocell and maintained in endothelial cell media from Promocell as per the company's protocol. To measure the release of inflammatory mediators HPMEC were cultured to confluence in a 12 well plate in 1 ml of endothelial cell media. Cells were then stimulated with TNFα at 100 ng/ml overnight in the presence or absence of B2 or control DMSO. The supernatant was then collected and inflammatory mediator levels were measured in it using the Cytokine XXL array from R&D systems according to manufacturer's instructions as described above.
(§1) Human primary pulmonary endothelial cells were triggered to produce cytokines by the pro-inflammatory cytokine TNFα. The levels of 105 cytokines in the cell culture supernatant were measured by the R&D Systems Human XL cytokine array and a fluorescence-based photometric read-out. The table lists cytokines whose production was reduced by >50% (left) or 20 to 50% upon treatment with 50 μM B2 (right).

[4] = test system: Human primary coronary artery endothelial cells (HCAEC); assay: Coronary artery endothelial cell cytokine release (TNFα triggered, cytokine array); details: 50 μM B2, TNFα
Description: as §1, with “coronary artery” for “pulmonary”, “cells (HCAEC)” for “cells”

## Cc1onc(-c2ccccc2Cl)c1C(=O)Nc1nc2ccc([N+](=O)[O-])cc2s1 [B2, 3-(2-chlorophenyl)-5-methyl-N-(6-nitrobenzo[d]thiazol-2-yl)isoxazole-4-carboxamide]
[1]
  neutrophil adhesion to endothelial cells: inhibition of neutrophil adhesion to endothelial cells
[2]
  production of reactive oxygen species (ROS) by human primary eosinophils: reduced production
[3]; *Poor dose response, only minor increase with TNF, read-out: FGF19 production, reduction
  inhibition at 50 µM: 20 to 50%
[3]; read-out: CCL2/MCP-1 production, reduction
  inhibition at 50 µM: 20 to 50%
[3]; read-out: CCL5/RANTES production, reduction
  inhibition at 50 µM: > 50%
[3]; read-out: CCL20/MIP-3 alpha production, reduction
  inhibition at 50 µM: 20 to 50%
[3]; read-out: CXCL1/GRO-alpha production, reduction
  inhibition at 50 µM: > 50%
[3]; read-out: CXCL5/ENA-78 production, reduction
  inhibition at 50 µM: > 50%
[3]; read-out: CXCL10/IP10 production, reduction
  inhibition at 50 µM: 20 to 50%
[3]; read-out: GMCSF production, reduction
  inhibition at 50 µM: > 50%
[3]; read-out: HGF production, reduction
  inhibition at 50 µM: > 50%
[3]; read-out: ICAM-1 production, reduction
  inhibition at 50 µM: > 50%
[3]; read-out: Pentraxin-3 production, reduction
  inhibition at 50 µM: 20 to 50%
[3]; read-out: TFF3 production, reduction
  inhibition at 50 µM: > 50%
[3]; read-out: VCAM-1 production, reduction
  inhibition at 50 µM: > 50%
[3]; TNFα, Table 1
  human pulmonary endothelial cell cytokine release profile: reducing specific pro-inflammatory cytokines
  secretion of several chemokines by endothelial cells: substantially reduced
  secretion of several soluble adhesion molecules by endothelial cells: reduced
[3]; activated by TNF, footnote * to FGF19
  FGF19 production, dose response: *Poor dose response, only minor increase with TNF.
[4]; read-out: CCL5 production, inhibition
  inhibition at 50 µM: 20 to 50%
[4]; read-out: CXCL1 production, inhibition
  inhibition at 50 µM: 20 to 50%
[4]; read-out: CXCL5 production, inhibition
  inhibition at 50 µM: > 50%
[4]; read-out: CXCL10 production, inhibition
  inhibition at 50 µM: > 50%
[4]; read-out: CXCL11 production, inhibition
  inhibition at 50 µM: > 50%
[4]; read-out: GM-CSF production, inhibition
  inhibition at 50 µM: 20 to 50%
[4]; read-out: ICAM1 production, inhibition
  inhibition at 50 µM: 20 to 50%
[4]; read-out: IGFBP2 production, inhibition
  inhibition at 50 µM: > 50%
[4]; read-out: Thrombospondin-1 production, inhibition
  inhibition at 50 µM: > 50%
[4]; read-out: VCAM1 production, inhibition
  inhibition at 50 µM: > 50%
